Measured values: patent publication US8431564B2 (Merck Sharp & Dohme B.V., priority 2009, dated 2013)

What follows are compounds tested against T1, human FSH receptor (Homo sapiens, UniProt P23945) (assay: Agonistic activity at the human FSH receptor expressed in CHO cells (CRE-luciferase reporter)). Settings: CHO cells stably transfected with human FSH receptor and CRE/luciferase reporter; 4 hours incubation; pEC50 is -log EC50.
T1 construct: expressed in transfected cells; host or cells: CHO (Chinese Hamster Ovary) cells, stably transfected, cotransfected with CRE-luciferase reporter
T1 sequence (P23945 18-695): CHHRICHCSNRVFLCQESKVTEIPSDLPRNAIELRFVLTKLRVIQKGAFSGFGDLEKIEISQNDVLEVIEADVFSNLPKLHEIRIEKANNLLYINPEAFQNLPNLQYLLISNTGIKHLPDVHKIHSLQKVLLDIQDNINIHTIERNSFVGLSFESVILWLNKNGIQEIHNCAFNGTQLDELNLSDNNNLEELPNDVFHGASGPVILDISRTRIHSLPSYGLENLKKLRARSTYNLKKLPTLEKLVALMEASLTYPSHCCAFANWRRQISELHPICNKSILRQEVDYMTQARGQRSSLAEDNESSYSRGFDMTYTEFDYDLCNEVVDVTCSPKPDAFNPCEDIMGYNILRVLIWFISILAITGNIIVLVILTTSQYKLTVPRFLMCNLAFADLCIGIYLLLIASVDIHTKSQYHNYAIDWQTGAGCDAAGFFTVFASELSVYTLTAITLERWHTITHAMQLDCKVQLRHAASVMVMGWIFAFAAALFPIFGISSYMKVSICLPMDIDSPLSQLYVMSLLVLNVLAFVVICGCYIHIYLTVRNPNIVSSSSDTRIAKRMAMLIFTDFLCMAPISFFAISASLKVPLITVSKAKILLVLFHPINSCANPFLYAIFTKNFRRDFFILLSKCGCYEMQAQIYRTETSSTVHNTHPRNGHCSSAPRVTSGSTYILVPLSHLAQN
Format: cell-based
Excerpt: The term EC50 means the concentration of the test compound that elicits half-maximal (50%) stimulation compared to the compound's maximally attainable effect. pEC50 is the negative log of EC50. The values can be determined e.g. in a cell line transfected with a FSH receptor gene and cotransfected with a cAMP responsive element/promoter directing the expression of a reporter gene. For the determination a software program such as MathIQ (version 2.0, ID Business Solutions Limited) can be used.
Agonistic activity of the compounds at the human FSH receptor was determined in Chinese Hamster Ovary (CHO) cells stably transfected with the human FSH receptor and cotransfected with a cAMP responsive element (CRE)/promotor directing the expression of a firefly luciferase reporter gene. Binding of the compounds to the Gs protein-coupled FSH receptor will result in an increase of cAMP, which in turn will induce an increased transactivation of the luciferase reporter. Cells (7,500 cells/well of a 384 well plate) were incubated in Dulbecco' minimal essential F12 modified medium (Invitrogen), supplemented with 1 μg/ml bovine insulin, 5 μg/ml human apo-transferrin, 80 U/ml penicillin G and 80 μg/ml streptomycin with the test compounds (concentration between 0.0316 nM and 10.0 μM) in duplicate in a humidified atmosphere (95%) at 5-7% CO2 and 37° C. The final concentration of DMSO was 1%. After 4 hours of incubation, plates were allowed to adjust to room temperature for 1 hour. Then, Luclite (PerkinElmer) solution was added to the wells and cells were allowed to lyse for at least 1 hour at room temperature. Subsequently, luciferase activity was measured in a luminescence counter. The signal is expressed as counts per second (cps). The EC50 (concentration of the test compound that elicits half-maximal (50%) luciferase stimulation compared to the compound's maximally attainable effect) and efficacy values (maximal effect of the test compound as percentage of the maximal effect of recombinant human FSH) of the compounds were determined using the software program MathIQ (version 2.0, ID Business Solutions Limited). pEC50 data (pEC50 is −log EC50) are indicated at the synthesis examples.

hFSHRago (CHO luc) pEC50 | Structure (SMILES)
7.19 | COc1cc2c(cc1-c1ccn(C)n1)-c1c(-c3cccs3)c3c(n1CC2)C(=O)N(C(C)(C)C)CCC3 [Compound 4h]
7.86 | CC(C)(C)N1CCCc2c(-c3cccs3)c3n(c2C1=O)CCc1ccc(-c2cnccn2)cc1-3 [Compound 4i]

Same assay, conditions: CHO cells stably transfected with human FSH receptor and CRE/luciferase reporter; 4 hours incubation; pEC50 is -log EC50; read-out: hFSHRago (CHO luc) pEC50 (converted)

Structure (SMILES) | EC50 [nM]
COc1cc2c(cc1-c1cccnc1)-c1c(-c3cncs3)c3c(n1CC2)C(=O)N(C(C)(C)C)CCCC3 [Compound 17k, 9-tert-butyl-3-methoxy-2-pyridin-3-yl-14-(1,3-thiazol-5-yl)-5,6,10,11,12,13-hexahydroazocino[4′,3′:4,5]pyrrolo[2,1-a]isoquinolin-8(9H)-one] | 0.355
COc1cc2c(cc1OC(C)C)-c1c(-c3cccs3)c3c(n1CC2)C(=O)N(C(C)C)CCNC3 [Compound 14e, 9-isopropyl-3-methoxy-2-isopropoxy-14-(2-thienyl)-5,6,10,11,12,13-hexahydro[1,4]diazocino[6′,7′:4,5]pyrrolo[2,1-a]isoquinolin-8(9H)-one] | 93.3
COc1cc2c(cc1-c1cccnc1)-c1c(Br)c3c(n1CC2)C(=O)N(C(C)(C)C)CCC3 [Compound 13d, 9-tert-butyl-2-pyridin-3-yl-13-bromo-3-methoxy-5,6,9,10,11,12-hexahydro-8H-azepino[4′,3′:4,5]pyrrolo[2,1-a]isoquinolin-8-one] | 380
COc1cc2c(cc1-c1cccnc1)-c1c(-c3cccs3)c3c(n1CC2)C(=O)N(C)C(C)(C)CC3 [Compound 12l, 9-methyl-2-pyidin3-yl-3-methoxy-10,10-dimethyl-13-(2-thienyl)-5,6,9,10,11,12-hexahydro-8H-azepino[4′,3′:4,5]pyrrolo[2,1-a]isoquinolin-8-one] | 12
COc1cc2c(cc1[C@H](O)[C@@H](O)CO)-c1c(-c3cccs3)c3c(n1CC2)C(=O)N(C(C)(C)C)CCCC3 [Compound 21h, (1S,2S)-1-(9-tert-butyl-14-(thien-2-yl)-3-methoxy-5,6,10,11,12,13-hexahydroazocino[4′,3′:4,5]pyrrolo[2,1-a]isoquinolin-8(9H)-on-2-yl)propane-1,2,3-triol] | 5.5
COc1cc2c(cc1-c1cccc(F)n1)-c1c(-c3cncs3)c3c(n1CC2)C(=O)N(C(C)(C)C)CCOC3 [Compound 11k, 9-tert-butyl-2-(6-fluoropyridin-2-yl)-3-methoxy-14-(1,3-thiazol-5-yl)-5,6,10,11-tetrahydro-9H-[1,4]oxazocino[7′,6′:4,5]pyrrolo[2,1-a]isoquinolin-8(13H)-one] | 13.8
COc1cc2c(cc1-c1cccnc1)-c1c(-c3cccnc3)c3c(n1CC2)C(=O)N(C(C)(C)C)CCC3 [Compound 13e, 9-tert-butyl-2,13-di-(pyridin3-yl)-3-methoxy-5,6,9,10,11,12-hexahydro-8H-azepino[4′,3′:4,5]pyrrolo[2,1-a]isoquinolin-8-one] | 42.7
COc1cc2c(cc1N)-c1c(-c3cccs3)c3c(n1CC2)C(=O)N(C(C)(C)C)CCCC3 [Compound 20b, 9-tert-butyl-14-(thien-2-yl)-2-amino-3-methoxy-5,6,10,11,12,13-hexahydroazocino[4′,3′:4,5]pyrrolo[2,1-a]isoquinolin-8(9H)-one] | 39.8
COc1cc2c(cc1-n1cc(C[C@H](O)CO)nn1)-c1c(-c3cccs3)c3c(n1CC2)C(=O)N(C(C)(C)C)CCCC3 [Compound 20f, (S)-9-tert-butyl-14-(thien-2-yl)-2-(4-(2,3-dihydroxypropyl)-1H-1,2,3-triazol-1-yl)-3-methoxy-5,6,10,11,12,13-hexahydroazocino[4′,3′:4,5]pyrrolo[2,1-a]isoquinolin-8(9H)-one] | 4.07
COc1cc2c(cc1-c1cccnc1)-c1c(-c3cccs3)c3c(n1CC2)C(=O)N(C(C)C)CCN(C(C)=O)C3 [Compound 10p, 12-acetyl-9-isopropyl-3-methoxy-2-pyridin-3-yl-14-(2-thienyl)-5,6,10,11,12,13-hexahydro[1,4]diazocino[6′,7′:4,5]pyrrolo[2,1-a]isoquinolin-8(9H)-one] | 5.25
COc1cc2c(cc1-c1cccnc1)-c1c(-c3cncs3)c3c(n1CC2)C(=O)N(C(C)(C)C)CCCCC3 [Compound 16n, 2-pyridin-3-yl-9-tert-butyl-3-methoxy-15-(1,3-thiazol-5-yl)-5,6,9,10,11,12,13,14-octahydro-8H-azonino[4′,3′:4,5]pyrrolo[2,1-a]isoquinolin-8-one] | 16.2

The next lines start with the values.

EC50 [nM] | Structure (SMILES)
9.77 | COc1cc2c(cc1C(=O)N1CCOCC1)-c1c(-c3cccs3)c3c(n1CC2)C(=O)N(C(C)(C)C)CCCC3 [Compound 26c4, 9-tert-butyl-3-methoxy-2-(4-morpholinylcarbonyl)-14-(thiophen-2-yl)-5,6,10,11,12,13-hexahydroazocino[4′,3′:4,5]pyrrolo[2,1-a]isoquinolin-8(9H)-one]
1.95 | COc1cc2c(cc1C(=O)NCCC(O)CO)-c1c(-c3cccs3)c3c(n1CC2)C(=O)N(C(C)(C)C)CCCC3 (stereo not drawn) [Compound 26c10, 9-tert-butyl-2-(3,4-dihydroxybutylaminocarbonyl)-3-methoxy-14-(thiophen-2-yl)-5,6,10,11,12,13-hexahydroazocino[4′,3′:4,5]pyrrolo[2,1-a]isoquinolin-8(9H)-one]
0.468 | C=CCCNC(=O)c1cc2c(cc1OC)CCn1c3c(c(-c4cccs4)c1-2)CCCCN(C(C)(C)C)C3=O [Compound 26c9, 9-tert-butyl-2-(4-butenylaminocarbonyl)-3-methoxy-14-(thiophen-2-yl)-5,6,10,11,12,13-hexahydroazocino[4′,3′:4,5]pyrrolo[2,1-a]isoquinolin-8(9H)-one]
3.31 | CCN1CCN(CC(=O)Nc2cc3c(cc2OC)CCn2c4c(c(-c5cccs5)c2-3)CCCCN(C(C)(C)C)C4=O)CC1 [Compound 22d, 2-(4-ethylpiperazin-1-yl)-N-(9-tert-butyl-14-(thien-2-yl)-3-methoxy-5,6,10,11,12,13-hexahydroazocino[4′,3′:4,5]pyrrolo[2,1-a]isoquinolin-8(9H)-on-2-yl)acetamide]
155 | CCS(=O)(=O)c1cc2c(cc1OC)CCn1c3c(c(Br)c1-2)CCCCN(C(C)(C)C)C3=O [Compound 23e, 9-tert-butyl-14-bromo-2-ethylsulfonyl-3-methoxy-5,6,10,11,12,13-hexahydroazocino[4′,3′:4,5]pyrrolo[2,1-a]isoquinolin-8(9H)-one]
0.871 | COc1cc2c(cc1C(=O)NCC(O)CO)-c1c(-c3cccs3)c3c(n1CC2)C(=O)N(C(C)(C)C)CCCC3 (stereo not drawn) [Compound 26c5, 9-tert-butyl-3-methoxy-2-(2,3-dihydroxy-1-propylaminocarbonyl)-14-(thiophen-2-yl)-5,6,10,11,12,13-hexahydroazocino[4′,3′:4,5]pyrrolo[2,1-a]isoquinolin-8(9H)-one]
0.251 | COc1cc2c(cc1CCCO)-c1c(-c3cccs3)c3c(n1CC2)C(=O)N(C(C)(C)C)CCCC3 [Compound 21j, 3-(9-tert-butyl-14-(thien-2-yl)-3-methoxy-5,6,10,11,12,13-hexahydroazocino[4′,3′:4,5]pyrrolo[2,1-a]isoquinolin-8(9H)-on-2-yl)propan-1-ol]
27.5 | COc1cc2c(cc1C(=O)N1CCC[C@H]1CO)-c1c(-c3cccs3)c3c(n1CC2)C(=O)N(C(C)(C)C)CCCC3 [Compound 26c3, (S)-9-tert-butyl-3-methoxy-2-(2-hydroxymethyl-1-pyrrolidinylcarbonyl)-14-(thiophen-2-yl)-5,6,10,11,12,13-hexahydroazocino[4′,3′:4,5]pyrrolo[2,1-a]isoquinolin-8(9H)-one]
